Measured values from patent US6444612B1, “Use of 5-amino-pyrazol-derivatives for combating micro-organisms” (Bayer Aktiengesellschaft, priority 1998, dated 2002).

Tested on: not listed separately
Test: log P value (physical constant)
Assay type: physicochemical
Settings: acidic

| logP | SMILES |
| --- | --- |
| 2.65 | CCOC(=O)c1c(CC)nn(C)c1NC(=O)Cc1cccc(Cl)c1 [Example 89, 5-(3-chloro-phenyl-acetyl)-amino-3-ethyl4-ethoxycarbonyl-l-methyl-pyrazole] |

Same assay, conditions: logP, Table 4

| SMILES | Physical constant (logP) |
| --- | --- |
| Cc1nn(C)c(NC(=O)Cc2ccccc2C(=O)O)c1Cl [Example 122] | logP = 1.50 |
| CCc1nn(C)c(NC(=O)Cc2c(C)cc(C)cc2C)c1C#N [Example 136] | logP = 2.83 |
| Cc1ccc(Oc2ccccc2CC(=O)Nc2c(Cl)c(C)nn2C)c(C)c1 [Example 138] | logP = 3.44 |
| Cc1cc(C)cc(-c2cc(C)c(CC(=O)Nc3c(Cl)c(C)nn3C)c(C)c2)c1 [Example 141] | logP = 4.09 |
| CCc1cc(NC(=O)Cc2ccc(Br)cc2)n(C)n1 [Example 105] | logP = 2.13 |
| Cc1nn(C)c(NC(=O)Cc2c(F)cc(F)c(F)c2C(F)(F)F)c1C#N [Example 160] | logP = 2.32 |
| CON=C(C)c1cccc(CC(=O)Nc2c(Cl)c(C)nn2C)c1 [Example 124] | logP = 2.32 |
| CCc1nn(C)c(NC(=O)Cc2c(F)cc(F)c(F)c2C(F)(F)F)c1C#N [Example 172] | logP = 2.59 |
| Cc1nn(C)c(NC(=O)Cc2c(F)cc(F)c(F)c2C(F)(F)F)c1Cl [Example 148] | logP = 2.60 |
| CCc1nn(C)c(NC(=O)C=Cc2ccc(Oc3ccc([N+](=O)[O-])cc3)cc2)c1C#N [Example 108] | logP = 3.05 |
| CCc1nn(C)c(NC(=O)Cc2cc(-c3ccccc3Cl)c(C)cc2C)c1C#N [Example 169] | logP = 3.51 |
| COc1ccccc1-c1cc(C)c(CC(=O)Nc2c(Cl)c(C)nn2C)c(C)c1 [Example 142] | logP = 3.25 |
| Cc1cc(C)c(-c2ccc(Cl)cc2)cc1CC(=O)Nc1c(Cl)c(C)nn1C [Example 146] | logP = 3.82 |
| Cc1cc(NC(=O)Cc2ccc(Cl)cc2Cl)n(C)n1 [Example 121] | logP = 2.06 |
| CC(=NO)c1cccc(CC(=O)Nc2c(Cl)c(C)nn2C)c1 [Example 123] | logP = 1.85 |
| Cc1cc(C)cc(-c2cc(C)c(CC(=O)Nc3c(C#N)c(C)nn3C)c(C)c2)c1 [Example 152] | logP = 3.88 |
| CC(=NOC(C)(C)C)c1cccc(CC(=O)Nc2c(Cl)c(C)nn2C)c1 [Example 130] | logP = 3.53 |
| Cc1cc(C)c(-c2ccc(Cl)cc2)c(C)c1CC(=O)Nc1c(Cl)c(C)nn1C [Example 147] | logP = 4.08 |
| CCON=C(C)c1cccc(CC(=O)Nc2c(Cl)c(C)nn2C)c1 [Example 125] | logP = 2.88 |

| SMILES | Physical constant (logP) |
| --- | --- |
| COC(=O)c1c(C)nn(C)c1NC(=O)Cc1cccc(Br)c1 [Example 135] | logP = 2.11 |
| Cn1nc(C2CC2)cc1NC(=O)Cc1ccc(Oc2ccc(C#N)cc2)cc1 [Example 109] | logP = 2.45 |
| CCc1nn(C)c(NC(=O)Cc2c(C)cc(-c3cccc(Cl)c3)cc2C)c1C#N [Example 167] | logP = 3.70 |
| CC(=NOCc1ccc(Cl)cc1Cl)c1cccc(CC(=O)Nc2c(Cl)c(C)nn2C)c1 [Example 129] | logP = 4.30 |
| CC(=NOCc1ccc(C(F)(F)F)cc1)c1cccc(CC(=O)Nc2c(Cl)c(C)nn2C)c1 [Example 127] | logP = 3.83 |
| CCOC(=O)c1c(CC)nn(C)c1NC(=O)C=Cc1ccc(Oc2ccc(C#N)cc2)cc1 [Example 106] | logP = 3.16 |
| Cc1cc(-c2cccc(Cl)c2)cc(C)c1CC(=O)Nc1c(Cl)c(C)nn1C [Example 143] | logP = 3.79 |
| Cc1nn(C)c(NC(=O)Cc2ccccc2C(=O)NCc2ccc(Cl)nc2)c1Cl [Example 134] | logP = 1.91 |
| CCc1nn(C)c(NC(=O)Cc2c(C)cc(-c3cc(C)cc(C)c3)cc2C)c1C#N [Example 164] | logP = 3.96 |
| Cc1ccc(-c2ccc(Cl)cc2)c(C)c1CC(=O)Nc1c(Cl)c(C)nn1C [Example 144] | logP = 3.84 |
| CCOC(=O)c1c(CC)nn(C)c1NC(=O)C=Cc1ccc(Oc2ccc([N+](=O)[O-])cc2)cc1 [Example 107] | logP = 3.41 |
| CCCNC(=O)c1ccccc1CC(=O)Nc1c(Cl)c(C)nn1C [Example 133] | logP = 1.92 |
| Cc1cc(C)c(-c2ccccc2Cl)cc1CC(=O)Nc1c(Cl)c(C)nn1C [Example 145] | logP = 3.64 |
| CC(=NOCc1c(Cl)cccc1Cl)c1cccc(CC(=O)Nc2c(Cl)c(C)nn2C)c1 [Example 131] | logP = 3.91 |
| CC(=NOCc1ccc(Cl)nc1)c1cccc(CC(=O)Nc2c(Cl)c(C)nn2C)c1 [Example 128] | logP = 2.80 |
| Cc1cc(NC(=O)Cc2ccccc2Cl)n(CCC#N)n1 [Example 113] | logP = 1.77 |
| COC(=O)c1c(C)nn(C)c1NC(=O)Cc1cccc(C(C)=O)c1 [Example 116] | logP = 1.50 |
| C=CCON=C(C)c1cccc(CC(=O)Nc2c(Cl)c(C)nn2C)c1 [Example 132] | logP = 2.80 |
| CCc1nn(C)c(NC(=O)Cc2c(C)cc(C)cc2C)c1Cl [Example 102] | logP = 3.01 |

Second part, the molecule after the results:

| Physical constant (logP) | SMILES |
| --- | --- |
| logP = 3.20 | CCc1nn(C)c(NC(=O)Cc2c(C)cc(-c3ccccc3OC)cc2C)c1C#N [Example 165] |
| logP = 3.17 | Cc1ccc(Oc2ccccc2CC(=O)Nc2c(C#N)c(C)nn2C)c(C)c1 [Example 149] |
| logP = 3.26 | CCOC(=O)c1c(CC)nn(C)c1NC(=O)Cc1ccc(OCc2ccccc2)cc1 [Example 104] |
| logP = 1.71 | CCc1nn(C)c(NC(=O)Cc2cccc(C(C)=O)c2)c1C#N [Example 115] |
| logP = 3.74 | CCc1nn(C)c(NC(=O)Cc2c(C)cc(-c3ccc(Cl)cc3)cc2C)c1C#N [Example 166] |
| logP = 3.43 | Cc1ccc(-c2ccc(Cl)cc2)c(C)c1CC(=O)Nc1c(C#N)c(C)nn1C [Example 156] |
| logP = 2.36 | Cc1cc(C)c(CC(=O)Nc2c(C#N)c(C)nn2C)c(C)c1 [Example 137] |
| logP = 3.53 | Cc1ccc(-c2cccc(Cl)c2)cc1CC(=O)Nc1c(Cl)c(C)nn1C [Example 140] |
| logP = 3.49 | Cc1cc(C)c(-c2ccc(Cl)cc2)cc1CC(=O)Nc1c(C#N)c(C)nn1C [Example 158] |
| logP = 3.46 | Cc1cc(-c2ccc(Cl)cc2)cc(C)c1CC(=O)Nc1c(C#N)c(C)nn1C [Example 154] |
| logP = 3.42 | Cc1cc(-c2cccc(Cl)c2)cc(C)c1CC(=O)Nc1c(C#N)c(C)nn1C [Example 155] |
| logP = 3.44 | CCc1nn(C)c(NC(=O)Cc2ccccc2Oc2ccc(C)cc2C)c1C#N [Example 161] |
| logP = 3.20 | Cc1ccc(-c2ccc(Cl)cc2)cc1CC(=O)Nc1c(C#N)c(C)nn1C [Example 151] |
| logP = 2.81 | CCc1nn(C)c(NC(=O)Cc2ccc(-c3ccccc3)cc2)c1C#N [Example 162] |
| logP = 2.57 | Cc1nn(C)c(NC(=O)Cc2ccc(-c3ccccc3)cc2)c1C#N [Example 150] |
| logP = 2.95 | COc1ccccc1-c1cc(C)c(CC(=O)Nc2c(C#N)c(C)nn2C)c(C)c1 [Example 153] |
| logP = 1.48 | CC(=O)c1cccc(CC(=O)Nc2c(C#N)c(C)nn2C)c1 [Example 114] |
| logP = 1.84 | CCc1nn(C)c(NC(=O)Cc2ccc(OC(C)=O)cc2)c1C#N [Example 120] |
| logP = 3.70 | Cc1cc(C)c(-c2ccc(Cl)cc2)c(C)c1CC(=O)Nc1c(C#N)c(C)nn1C [Example 159] |
| logP = 2.81 | Cc1nn(C)c(NC(=O)Cc2ccc(-c3ccccc3)cc2)c1Cl [Example 139] |
| logP = 3.28 | CCOC(=O)c1c(CC)nn(C)c1NC(=O)Cc1cccc(Oc2ccccc2)c1 [Example 111] |
| logP = 1.88 | CC(=O)Oc1cccc(CC(=O)Nc2c(C#N)c(C)nn2C)c1 [Example 119] |
| logP = 3.77 | CCc1nn(C)c(NC(=O)Cc2cc(-c3ccc(Cl)cc3)c(C)cc2C)c1C#N [Example 170] |
| logP = 2.90 | Cn1nc(C2CC2)c(Cl)c1NC(=O)Cc1ccc(Oc2ccc(C#N)cc2)cc1 [Example 110] |
| logP = 3.31 | CC(=NOCc1ccccc1)c1cccc(CC(=O)Nc2c(Cl)c(C)nn2C)c1 [Example 126] |
| logP = 3.24 | Cc1cc(C)c(-c2ccccc2Cl)cc1CC(=O)Nc1c(C#N)c(C)nn1C [Example 157] |
| logP = 3.49 | CCc1nn(C)c(NC(=O)Cc2cc(-c3ccc(Cl)cc3)ccc2C)c1C#N [Example 163] |

Tested on: Venturia inaequalis
Test: Venturia test (apple)/protective
Assay type: in vivo
Settings: protective, application rate 100 g/ha, evaluation 12 days after inoculation, 100% = no infection
Method: Venturia Test (Apple)/Protective
Solvent: 47 parts by weight of acetone
Emulsifier: 3 parts by weight of alkylaryl polyglycol ether
To produce a suitable preparation of active compound, 1 part by weight of active compound is mixed with the stated amounts of solvent and emulsifier, and the concentrate is diluted with water to the desired concentration.
To test for protective activity, young plants are sprayed with the preparation of active compound at the stated application rate. After the spray coating has dried on, the plants are inoculated with an aqueous conidia suspension of the apple pathogen Venturia inaequalis and then remain in an incubation cabin at about 20° C. and 100% relative atmospheric humidity for 1 day.
The plants are then placed in the greenhouse at about 21° C. and a relative atmospheric humidity of about 90%.
Evaluation is carried out 12 days after the inoculation. 0% means an efficacy which corresponds to that of the control, whereas an efficacy of 100% means that no infection is observed.

| SMILES | Efficacy in % [%] |
| --- | --- |
| CCc1nn(C)c(NC(=O)Cc2ccc(-c3ccc(OC(F)(F)F)cc3)cc2)c1Cl [drawing 292] | 96 |
| CCOC(=O)c1c(CC)nn(C)c1NC(=O)Cc1cccc(Oc2ccc(OC(F)(F)F)cc2)c1 [drawing 290] | 90 |
| CCc1cc(NC(=O)Cc2ccc(-c3ccc(OC(F)(F)F)cc3)cc2)n(C)n1 | 96 |
| CCOC(=O)c1c(CC)nn(C)c1NC(=O)Cc1ccc(-c2ccc(OC(F)(F)F)cc2)cc1 [drawing 291] | 93 |
